Tests used:
[1] = target: T1, human Mnk2a (Homo sapiens, UniProt Q9HBH9); assay: Mnk2a in vitro kinase assay (indirect fluorescence polarization); assay type: biochemical; conditions: GST-Mnk2a pre-activated with ERK2, 20 μM ATP, 30 μM substrate peptide; read-out: MNK2 IC50
T1 construct: made in house; host or cells: E. coli BL21 (vector pGEX-4T1)
Method in brief: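 Indirect competitive fluorescence polarization: kinase-generated phospho-product displaces a fluorophore-labelled phospho-peptide from a phospho-specific antibody. Enzyme is N-terminal GST-Mnk2a from E. coli, activated with pre-activated ERK2 and 50 μM ATP; substrate is an amidated 12-mer peptide around eIF4E Ser209.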

[2] = tested on: Mnk2 (Mnk2a or Mnk2b) or Mnk1; conditions: cell culture cells transfected with Mnk2 (Mnk2a or Mnk2b) or Mnk1; cited from earlier work

T1 sequence (Q9HBH9 whole entry): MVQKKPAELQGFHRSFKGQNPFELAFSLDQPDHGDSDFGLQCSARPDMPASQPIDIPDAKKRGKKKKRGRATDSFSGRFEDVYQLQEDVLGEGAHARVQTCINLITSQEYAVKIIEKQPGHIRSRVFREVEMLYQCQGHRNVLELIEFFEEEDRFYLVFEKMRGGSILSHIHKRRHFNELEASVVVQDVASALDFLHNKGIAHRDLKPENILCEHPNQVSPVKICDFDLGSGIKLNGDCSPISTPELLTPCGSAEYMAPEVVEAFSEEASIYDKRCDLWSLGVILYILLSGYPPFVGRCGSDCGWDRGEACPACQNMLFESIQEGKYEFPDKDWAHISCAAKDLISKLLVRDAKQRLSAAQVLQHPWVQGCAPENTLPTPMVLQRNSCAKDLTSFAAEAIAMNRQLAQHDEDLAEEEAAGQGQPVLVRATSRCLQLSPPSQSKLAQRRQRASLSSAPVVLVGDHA

SMILES | IC50 [1] [nM] | reduction of phosphorylated eIF4E [2]
Cc1c(C(=O)NCCOc2ccccc2)sc2ncnc(Nc3ccc(F)cc3OC3CCCNC3)c12 (centres unmarked) [Example 44] | 64 | –
Cc1c(C(=O)NC2CN(C)C2)sc2ncnc(Nc3ccc(F)cc3OC3CCOCC3)c12 [Example 200] | 69 | –
Cc1c(C(N)=O)sc2ncnc(Nc3ccc(F)cc3O[C@@H]3CN[C@H](CO)C3)c12 [Example 115, 4-[4-Fluoro-2-((3S,5S)-5-hydroxymethyl-pyrrolidin-3-yloxy)-phenylamino]-5-methyl-thieno[2,3-d]pyrimidine-6-carboxylic acid amide] | 100 | –
Cc1c(C(=O)NCC2CCCO2)sc2ncnc(Nc3ccc(F)cc3OC3CCOCC3)c12 (centres unmarked) [Example 217] | 49 | –
Cc1c(C(=O)NCCCC2CCOC2)sc2ncnc(Nc3ccc(F)cc3OC3CCCNC3)c12 (centres unmarked) [Example 39] | 58 | –
Cc1c(C(=O)NCCOC(C)C)sc2ncnc(Nc3ccc(F)cc3OC3CCOCC3)c12 [Example 232] | 45 | –
Cc1c(C(=O)NCc2cccc3ccccc23)sc2ncnc(Nc3ccc(F)cc3OC3CCCNC3)c12 (centres unmarked) [Example 60] | 64 | –
Cc1c(C(N)=O)sc2ncnc(Nc3ccc(F)cc3O[C@H]3CCCN(CC(F)(F)F)C3)c12 [Example 5] | 110 | –
Cc1c(C(=O)NCCCN2CCCC2)sc2ncnc(Nc3cccnc3O[C@@H]3CCCOC3)c12 [Example 262] | 53 | –
Cc1c(C(=O)NCCF)sc2ncnc(Nc3ccc(F)cc3OC3CCCNC3)c12 (centres unmarked) [Example 18] | 58 | –
Cc1c(C(=O)NCC(C)(C)C)sc2ncnc(Nc3ccc(F)cc3OC3CCCNC3)c12 (centres unmarked) [Example 21] | 76 | –
Cc1c(C(=O)NCc2ncco2)sc2ncnc(Nc3ccc(F)cc3OC3CCCNC3)c12 (centres unmarked) [Example 23] | 48 | –
Cc1c(C(=O)NCCC[S+](C)[O-])sc2ncnc(Nc3cccnc3OC3CCOCC3)c12 (centres unmarked) [Compound 282, 5-Methyl-4-[2-(tetrahydro-pyran-4-yloxy)-pyridin-3-ylamino]-thieno[2,3-d]pyrimidine-6-carboxylic acid (3-methanesulfinyl-propyl)-amide] | 53 | –
Cc1c(C(=O)NCCN2CCCC2)sc2ncnc(Nc3ccc(F)cc3OC3CCOCC3)c12 [Example 209] | 69 | –
Cc1c(C(=O)NC(C)CO)sc2ncnc(Nc3ccc(F)cc3OC3CCOCC3)c12 (centres unmarked) [Example 156] | 50 | –
CCNC(=O)c1sc2ncnc(Nc3ccc(F)cc3OC3CCOCC3)c2c1C [Example 227] | 47 | –
Cc1c(C(=O)NCC2CCCO2)sc2ncnc(Nc3ccc(F)cc3OC3CCCNC3)c12 (centres unmarked) [Example 25] | 81 | –
CC(=O)NCCNC(=O)c1sc2ncnc(Nc3ccc(F)cc3OC3CCOCC3)c2c1C [Example 230] | 49 | –
Cc1c(C(=O)NCCOCCO)sc2ncnc(Nc3ccc(F)cc3OC3CCCNC3)c12 (centres unmarked) [Example 50] | 72 | –
Cc1c(C(N)=O)sc2ncnc(Nc3ccc(F)cc3O[C@H]3CCCN(Cc4ncon4)C3)c12 [Example 4] | 110 | –
Cc1c(C(=O)NCCC(=O)N(C)C)sc2ncnc(Nc3ccc(F)cc3OC3CCOCC3)c12 [Example 167] | 43 | –
Cc1c(C(=O)NCCNc2ccccc2)sc2ncnc(Nc3ccc(F)cc3OC3CCCNC3)c12 (centres unmarked) [Example 43] | 56 | –
Cc1c(C(=O)N2CCCCC2CN2CCOCC2)sc2ncnc(Nc3ccc(F)cc3OC3CCOCC3)c12 (centres unmarked) [Example 252] | 8420 | –
Cc1c(C(N)=O)sc2ncnc(Nc3ccc(F)cc3OC3CCN(C(=O)CN(C)C)C3)c12 (centres unmarked) [Example 95, 4-{2-[1-(2-Dimethylamino-acetyl)-pyrrolidin-3-yloxy]-4-fluoro-phenylamino}-5-methyl-thieno[2,3-d]pyrimidine-6-carboxylic acid amide] | 460 | –
Nc1ncnc2n[nH]c(Nc3ccc(F)cc3)c12 [CGP57380] | – | strong reduction

Continued, in another order:

IC50 [1] [nM] | SMILES | reduction of phosphorylated eIF4E [2]
5 | Cc1c(C(=O)NC#N)sc2ncnc(Nc3ccc(F)cc3O[C@@H]3CCOC3)c12 [Example 100, (R)—N-cyano-4-(4-fluoro-2-(tetrahydrofuran-3-yloxy)phenylamino)-5-methylthieno[2,3-d]pyrimidine-6-carboxamide] | –
34 | Cc1c(C(=O)NCCS(N)(=O)=O)sc2ncnc(Nc3ccc(F)cc3OC3CCOCC3)c12 [Example 196] | –
22 | COCCN1CCC[C@@H](Oc2cc(F)ccc2Nc2ncnc3sc(C(N)=O)c(C)c23)C1 [Example 75] | –
35 | Cc1c(C(=O)NCC2CCCCC2O)sc2ncnc(Nc3ccc(F)cc3OC3CCCNC3)c12 (centres unmarked) [Example 40] | –
21 | Cc1c(C(=O)Nc2ccn(C)n2)sc2ncnc(Nc3ccc(F)cc3O[C@H]3CCCNC3)c12 [Example 64, 4-[4-Fluoro-2-((S)-piperidin-3-yloxy)-phenylamino]-5-methyl-thieno[2,3-d]pyrimidine-6-carboxylic acid (1-methyl-1H-pyrazol-3-yl)-amide] | –
22 | Cc1c(C(=O)N[C@@H]2CCC[C@H]2O)sc2ncnc(Nc3ccc(F)cc3OC3CCOCC3)c12 [Example 255] | –
40 | Cc1c(C(=O)NC2CCCN(C(=O)OC(C)(C)C)CC2)sc2ncnc(Nc3ccc(F)cc3O[C@H]3CCOC3)c12 (stereo partly drawn) [Example 272, 4-[(4-{4-Fluoro-2-[(S)-(tetrahydro-furan-3-yl)oxy]-phenylamino}-5-methyl-thieno[2,3-d]pyrimidine-6-carbonyl)-amino]-azepane-1-carboxylic acid tert-butyl ester] | –
9 | Cc1c(C(N)=O)sc2ncnc(Nc3ccc(F)cc3O[C@@H]3CCCN(Cc4ncon4)C3)c12 [Example 72, 4-[4-Fluoro-2-((R)-1-[1,2,4]oxadiazol-3-ylmethyl-piperidin-3-yloxy)-phenylamino]-5-methyl-thieno[2,3-d]pyrimidine-6-carboxylic acid amide] | –
8 | Cc1c(C(N)=O)sc2ncnc(Nc3ccc(F)cc3O[C@@H]3CCCN(CCC#N)C3)c12 [Example 82, 4-{2-[(R)-1-(2-Cyano-ethyl)-piperidin-3-yloxy]-4-fluoro-phenylamino}-5-methyl-thieno[2,3-d]pyrimidine-6-carboxylic acid amide] | –
43 | Cc1c(C(=O)NCc2cc(F)ccc2F)sc2ncnc(Nc3ccc(F)cc3OC3CCCNC3)c12 (centres unmarked) [Example 57] | –
26 | Cc1c(C(=O)NCCCN(C)CCN(C)C)sc2ncnc(Nc3ccc(F)cc3OC3CCOCC3)c12 [Example 126] | –
25 | Cc1c(C(=O)NCC#N)sc2ncnc(Nc3cccnc3O[C@@H]3CCCOC3)c12 [Example 266] | –
31 | Cc1c(C(=O)NCCO)sc2ncnc(Nc3ccc(F)cc3O[C@H]3CCCNC3)c12 [Example 15] | –
41 | Cc1c(C(=O)N[C@H]2C[C@H](N)C2)sc2ncnc(Nc3ccc(F)cc3OC3CCOCC3)c12 [Example 143] | –
27 | Cc1c(C(=O)NCCc2c[nH]cn2)sc2ncnc(Nc3ccc(F)cc3OC3CCOCC3)c12 [Example 233] | –
30 | Cc1c(C(=O)NCc2cnco2)sc2ncnc(Nc3ccc(F)cc3OC3CCOCC3)c12 [Example 186] | –
10 | Cc1c(C(N)=O)sc2ncnc(Nc3ccc(F)cc3O[C@H]3CCCN(S(C)(=O)=O)C3)c12 [Example 10, (S)-4-(4-fluoro-2-(1-(methylsulfonyl)piperidin-3-yloxy)phenylamino)-5-methylthieno[2,3-d]pyrimidine-6-carboxamide] | –
31 | Cc1c(C(=O)NCCCN2CCC(F)(F)C2)sc2ncnc(Nc3ccc(F)cc3OC3CCOCC3)c12 [Example 124] | –
32 | CONC(=O)c1sc2ncnc(Nc3ccc(F)cc3O[C@@H]3CCOC3)c2c1C [Example 102, 4-{4-Fluoro-2-[(R)-(tetrahydro-furan-3-yl)oxy]-phenylamino}-5-methyl-thieno[2,3-d]pyrimidine-6-carboxylic acid methoxy-amide] | –
27 | C#CCNC(=O)c1sc2ncnc(Nc3ccc(F)cc3OC3CCOCC3)c2c1C [Example 229] | –
34 | Cc1c(C(=O)NCCCN2CCC(O)CC2)sc2ncnc(Nc3ccc(F)cc3OC3CCOCC3)c12 [Example 253] | –
12 | Cc1c(C(=O)NS(C)(=O)=O)sc2ncnc(Nc3ccc(F)cc3OC3CCOCC3)c12 [Example 235] | –
30 | Cc1c(C(=O)NC2CC2)sc2ncnc(Nc3ccc(F)cc3O[C@H]3CCCNC3)c12 [Example 17] | –
33 | Cc1c(C(=O)NCCCS(C)(=O)=O)sc2ncnc(Nc3ccc(F)cc3OC3CCOCC3)c12 [Example 193] | –
36 | CSCCCNC(=O)c1sc2ncnc(Nc3ccc(F)cc3OC3CCOCC3)c2c1C [Example 237] | –
